Patent publication US9938271B2, “Inhibitors of human immunodeficiency virus replication” (VIIV HEALTHCARE UK (NO. 5) LIMITED, priority 2014, dated 2018)

Test system: NL-RLuc virus (recombinant HIV NL4-3 with Renilla Luciferase gene) in MT-2 cells
Test: Inhibition of HIV replication (NL-RLuc luciferase reporter virus in MT-2 cells)
Assay type: cell-based
Excerpt: Inhibition of HIV Replication:
A recombinant NL-RLuc proviral clone was constructed in which a section of the nef gene from NL4-3 was replaced with the Renilla Luciferase gene. This virus is fully infectious and can undergo multiple cycles of replication in cell culture. In addition, the luciferous reporter provides a simple and easy method for quantitating the extent of virus growth and consequently, the antiviral activity of test compounds. The plasmid pNLRLuc contains the proviral NL-Rluc DNA cloned into pUC 18 at the PvuII site. The NL-RLuc virus was prepared by transfection of 293T cells with the plasmid pNLRLuc. Transfections were performed using the LipofectAMINE PLUS kit from Invitrogen (Carlsbad, Calif.) according to the manufacturer and the virus generated was titered in MT-2 cells. For susceptibility analyses, the titrated virus was used to infect MT-2 cells in the presence of compound, and after 5 days of incubation, cells were processed and quantitated for virus growth by the amount of expressed luciferase. Assay media was RPMI 1640 supplemented with 10% heat inactivated fetal bovine serum (FBS), 100 units/ml penicillin G/100 units/ml streptomycin, 10 mM HEPES buffer pH 7.55 and 2 mM L-glutamine. The results from at least 2 experiments were used to calculate the EC50 values. Luciferase was quantitated using the Dual Luciferase kit from Promega (Madison, Wis.). Susceptibility of viruses to compounds was determined by incubation in the presence of serial dilutions of the compound. The 50% effective concentration (EC50) was calculated by using the exponential form of the median effect equation where (Fa)=1/[1+(ED50/drug conc.)^m] (Johnson V A, Byington R T. Infectivity Assay. In Techniques in HIV Research. ed. Aldovini A, Walker B D. 71-76. New York: Stockton Press. 1990). Activity equal to A refers to a compound having an EC50≤100 nM, while B and C denote compounds having an EC50 between 100 nM and 1 uM (B) or >1 uM (C).

[1] = MT2, 120 h, MT-2 cells infected with NL-RLuc virus, 5 days of incubation, luciferase readout, 10% FBS

With `Cc1cn2cc(-c3cccc(-c4ccc(F)cc4)c3)nc2c(-c2cc(F)c3c(c2C)CCCO3)c1[C@H](OC(C)(C)C)C(=O)O` (single isomer, unassigned) [Example 1] the EC50 ({}) was 16 nM.

With `Cc1cn2cc(-c3cccc(-c4ccc(F)cc4)c3)nc2c(-c2cc(F)c3c(c2C)CCCO3)c1[C@H](OC(C)(C)C)C(=O)O` (single isomer, unassigned) [Example 2] the EC50 ({}) was 187 nM.

Molecule `Cc1ccccc1-c1cccc(-c2cn3cc(C)c([C@H](OC(C)(C)C)C(=O)O)c(-c4cc(F)c5c(c4C)CCCO5)c3n2)c1` (single isomer, unassigned) [Example 5] has an EC50 ({}) of 34 nM.

Work on `Cc1ccccc1-c1cccc(-c2cn3cc(C)c([C@H](OC(C)(C)C)C(=O)O)c(-c4cc(F)c5c(c4C)CCCO5)c3n2)c1` (single isomer, unassigned) [Example 6] yielded an EC50 ({}) of 560 nM.

Work on `Cc1cn2cc(-c3cccc(-c4ccccc4F)c3)nc2c(-c2cc(F)c3c(c2C)CCCO3)c1[C@H](OC(C)(C)C)C(=O)O` [Example 3, (2S)-2-(tert-Butoxy)-2-(8-(8-fluoro-5-methylchroman-6-yl)-2-(2′-fluoro-[1,1′-biphenyl]-3-yl)-6-methylimidazo[1,2-a]pyridin-7-yl)acetic acid] yielded an EC50 [1] of 11 nM.

With `Cc1cn2cc(-c3cccc(-c4ccccc4F)c3)nc2c(-c2ccccc2F)c1[C@H](OC(C)(C)C)C(=O)O` [Example 4, (2S)-2-(tert-Butoxy)-2-(2-(2′-fluoro-[1,1′-biphenyl]-3-yl)-8-(2-fluorophenyl)-6-methylimidazo[1,2-a]pyridin-7-yl)acetic acid] the EC50 [1] was 265 nM.

`Cc1cn2cc(-c3cccc(-c4ccccc4F)c3)nc2c(-c2ccc3c(c2)CCCO3)c1[C@H](OC(C)(C)C)C(=O)O` [Example 7, (S)-2-(tert-Butoxy)-2-(8-(chroman-6-yl)-2-(2′-fluoro[1,1′-biphenyl]-3-yl)-6-methylimidazo[1,2-a]pyridin-7-yl)acetic acid] showed an EC50 [1] of 19 nM.

Molecule `Cc1cn2cc(-c3cccc(-c4ccc(F)c(F)c4F)c3)nc2c(-c2ccc3c(c2)CCCO3)c1[C@H](OC(C)(C)C)C(=O)O` [Example 8, (S)-2-(tert-Butoxy)-2-(8-(chroman-6-yl)-6-methyl-2-(2′,3′,4′-trifluoro-[1,1′-biphenyl]-3-yl)imidazo[1,2-a]pyridin-7-yl)acetic acid] has an EC50 [1] of 10 nM.

`Cc1cn2cc3nc2c(c1[C@H](OC(C)(C)C)C(=O)O)N1CCC(C)(CC1)OCCCC[C@H](C)Oc1cc(F)ccc1-c1cccc-3c1` [Example 9, (2S)-2-(tert-Butoxy)-2-[(22S)-18-fluoro-4,22,28-trimethyl-21,27-dioxa-1,6,8-triazahexacyclo[26.2.2.1^6,9.1^10,14.0^2,7.0^15,20]tetratriaconta-2,4,7,9(34),10(33),11,13,15,17,19-decaen-3-yl]acetic acid] showed an EC50 [1] of 36 nM.

`Cc1cn2c(C(C)(C)C)c3nc2c(c1[C@H](OC(C)(C)C)C(=O)O)N1CCC(C)(CC1)OCCCC[C@H](C)Oc1cc(F)ccc1-c1cccc-3c1` [Example 10, (2S)-2-(tert-Butoxy)-2-[(22S)-34-tert-butyl-18-fluoro-4,22,28-trimethyl-21,27-dioxa-1,6,8-triazahexacyclo[26.2.2.1^6,9.1^10,14.0^2,7.0^15,20]tetratriaconta-2,4,7,9 (34),10(33),11,13,15,17,19-decaen-3-yl]acetic acid] was tested, and the EC50 [1] was 148 nM.
